Data on two compounds can be found in patent US20090264402A1, “NOVEL DIPHENYLAZETIDINONE SUBSTITUTED BY PIPERAZINE-1-SULFONIC ACID AND HAVING IMPROVED PHARMACOLOGICAL PROPERTIES” (SANOFI-AVENTIS DEUTSCHLAND GMBH, priority 2006, published 2009).

The subject of the assay is uptake of 14C-cholesterol in the liver. The assay is described as follows: Cholesterol absorption test (14C-cholesterol uptake in the liver) in NMRI mice. Format: in vivo. As for the experimental part: The compound of the invention of the formula I (ammonium salt) was tested for its effect using the method described below:
NMRI mice (in groups of n=4-6) are kept with a standard diet (altromin, lage (lippe)) in metabolism cages. The animals are fasted from the afternoon before administration of the radioactive tracer (^14C-cholesterol) and adapted to wire grids.
In addition, the animals are labeled with ^3H-TCA (taurocholic acid) s.c. 24 hours before the oral administration of the test meal (^14C-cholesterol in Intralipid® 20, Pharmacia-Upjohn) (e.g. 1 μCi/mouse to 5 μCi/rat).
Cholesterol absorption test: 0.25 ml/mouse Intralipid® 20 (Pharmacia-Upjohn) (spiking with 0.25 μCi ^14C-cholesterol in 0.1 mg of cholesterol) is administered orally by gavage.
Test substances are made up separately in 0.5%/(methylcellulose (Sigma)/5% Solutol (BASF, Ludwigshafen) or a suitable vehicle.
The volume for administration of the test substance is 0.5 ml/mouse. The test substance is administered immediately before the test meal (Intralipid with ^14C-cholesterol label) (cholesterol absorption test).
The livers are removed, homogenized and combusted in aliquots in an oximate (model 307, Packard) to determine the amount of ^14C-cholesterol taken up/absorbed.
The amount of ^14C-cholesterol taken up in the liver is related to the dose administered. […]

Turning to `N.O=C(Oc1ccc([C@@H]2[C@@H](CC[C@H](O)c3ccc(F)cc3)C(=O)N2c2ccc(F)cc2)c(F)c1)N1CCN(S(=O)(=O)O)CC1` [I (ammonium salt), Ammonium 4-(3-fluoro-4-{(2S,3R)-1-(4-fluorophenyl)-3-[(S)-3-(4-fluoro-phenyl)-3-hydroxylpropyl]-4-oxoazetidin-2-yl}phenoxycarbonyl)piperazine-1-sulfonate], the “ED50 (liver)” value (NMRI mice, oral, test substance given immediately before 14C-cholesterol test meal, dose which halves uptake of 14C-cholesterol in the liver relative to control) is recorded as 0.01 mg/mouse.
For the compound `O=C(Oc1ccc([C@@H]2[C@@H](CC[C@H](O)c3ccc(F)cc3)C(=O)N2c2ccc(F)cc2)c(F)c1)N1CCN(S(=O)(=O)O)CC1` [I], the “activity relative to comparison compound LVIII from WO 2004/000804 (times better)” value (ratio of ED50 (liver) values) amounted to 10 times.
